| SMILES | flash point [°C] |
| --- | --- |
| C[SiH](C)C(C)(C)C [t-Butyldimethylsilane] | -22.00 |
| CC(C)(C)[Si](C)(C)O [t-Butyldimethylsilanol] | 45.00 |

Remark: another data set of the same source

| SMILES | flash point [°C] |
| --- | --- |
| CCCCCC(C)C [2-methylheptane] | 4.00 |

Remark: another data set of the same source

| SMILES | flash point [°C] |
| --- | --- |
| C=CCCCCCCCCCCCCCCC [1-heptadecene] | 141 |

Remark: another data set of the same source

| SMILES | flash point [°C] |
| --- | --- |
| C[C@H]1CCC[C@H](C)C1 (relative stereo) [trans-1,3-dimethylcyclohexane] | 8 |
| CC1(C)CCCC1 [1,1-dimethylcyclopentane] | -16 |
| C1=CCCC=C1 [1,3-cyclohexadiene] | -16 |
| C=CCC=CC [1,4-hexadiene] | -25 |
| CCc1ccccc1C(C)C [1-ethyl-2-isopropylbenzene] | 58 |
| C=CCCCCCCCCCCCCCCC [1-heptadecene] | 135 |
| CCCC(C)(C)C(C)(C)C [2,2,3,3-tetramethylhexane] | 31 |
| CC(C)(C)CCC(C)(C)C [2,2,5,5-tetramethylhexane] | 16 |
| CC(C)C(C)(C)C(C)C [2,3,3,4-tetramethylpentane] | 11 |
| C=C(C)C(C)(C)C [2,3,3-trimethyl-1-butene] | -17 |
| C=C(C)C(C)CC (stereo unspecified) [2,3-dimethyl-1-pentene] | -17 |
| CCC(C)CCCC(C)C (stereo unspecified) [2,6-dimethyloctane] | 34 |
| C=C(CC)CCC [2-ethyl-1-pentene] | -10 |
| CCCCCC(C)C [2-methylheptane] | 5 |
| C#CC(C)(C)C [3,3-dimethyl-1-butyne] | -34 |
| CCC(CC)C(C)C [3-ethyl-2-methylpentane] | 3 |
| CCC(CC)CC [3-ethylpentane] | -12 |
| CCCCCCC(C)CC (stereo unspecified) [3-methylnonane] | 41 |
| C=CCC(C)(C)C [4,4-dimethyl-1-pentene] | -12 |
| CC#CC(C)(C)C [4,4-dimethyl-2-pentyne] | -10 |
| C=CCC(C)CC (stereo unspecified) [4-methyl-1-hexene] | -15 |
| C#CCC(C)C [4-methyl-1-pentyne] | -24 |
| CCCCC(C)CCC (stereo unspecified) [4-methyloctane] | 22 |

| SMILES | flash point [°C] |
| --- | --- |
| C=CCCC(C)C [5-methyl-1-hexene] | -10 |
| C#CCCC(C)C [5-methyl-1-hexyne] | -4 |
| C=CCCCCC(C)C [7-methyl-1-octene] | 18 |
| C[C@@H]1CCC[C@@H]1C [cis-1,2-dimethylcyclopentane] | -4 |
| C/C=C\CCC [cis-2-hexene] | -26 |
| C/C=C\CC [cis-2-pentene] | -47 |
| CC/C=C\CC [cis-3-hexene] | -28 |
| CC/C=C\CCCC [cis-3-octene] | 17 |
| CCC/C=C\CCC [cis-4-octene] | 17 |
| C1=CCCCCCC1 [cyclooctene] | 25 |
| CCC1CCCC1 [ethylcyclopentane] | -4 |
| Cc1cccc(C(C)C)c1 [m-isopropyltoluene] | 50 |
| CCCCCCCCCc1ccccc1 [n-nonylbenzene] | 117 |
| C[C@H]1CC[C@H](C)CC1 [trans-1,4-dimethylcyclohexane] | 6 |
| C/C=C/CCCC [trans-2-heptene] | -6 |
| C/C=C/CCCCC [trans-2-octene] | 14 |
| C/C=C/CC [trans-2-pentene] | -45 |
| CC/C=C/CCC [trans-3-heptene] | -6 |
| CC/C=C/CCCC [trans-3-octene] | 9 |
| C/C=C/C(C)C [trans-4-methyl-2-pentene] | -34 |
| CCC/C=C/CCC [trans-4-octene] | 8 |
| C1CC[C@H]2CCCC[C@@H]2C1 [trans-decalin] | 52 |
| C=CC1CCCCC1 [vinylcyclohexane] | 21 |

Remark: another data set of the same source

| SMILES | flash point [°C] |
| --- | --- |
| C1=CCCC=C1 [1,3-cyclohexadiene] | 26 |

— a flash point compilation (Sun et al. 2020)
